From patent publication US4073908A, “8-Amino-theophylline derivatives and therapeutic applications thereof” (Laboratoire le Brun S.A., priority 1975, dated 1978) come the findings set out here.

Type in all cases: in vivo
A short description of one data set: Acute toxicity in rats. To be noted: rat, in vivo, po, single administration. The source says:
(§1) Acute toxicity in mice by the sub-cutaneous and oral routes and in rats by the oral route was investigated by determination of the death rate following a single administration of increasing dosages.
(§2) Symbol > means that the LD50 is not attained at the dosage indicated.

A further data set in a line: Acute toxicity in mice. Particulars: mouse, in vivo, single administration.
From the text: as §1, §2

For data set [1], the system named is aggressiveness subsequent to electric shocks in mice. As to the kind of experiment: Anti-aggressive: aggressiveness subsequent to electric shocks, mice. Particulars: Mus musculus, oral, read-out: Oral AD50, electric shock in mice. The protocol:
(§3) a. aggressiveness subsequent to electric shocks in mice and rats,
(§4) In all cases, the AD50 values were determined by the oral route.

The subject of data set [2] is aggressiveness subsequent to electric shocks in rats. The data set is described as follows: Anti-aggressive: aggressiveness subsequent to electric shocks, rats. Particulars: Rattus norvegicus, oral, read-out: Oral AD50, electric shock in rats. On the procedure: as §3, §4
Data set [3] relates to aggressiveness subsequent to apomorphine injection in rats. As to the kind of experiment: Anti-aggressive: aggressiveness subsequent to apomorphine injection, rats. Particulars: Rattus norvegicus, oral, apomorphine injection 1 mg/kg, read-out: Oral AD50, apomorphine, in rats. The protocol: b. aggressiveness subsequent to apomorphine injection (1 mg/kg, in vivo) in rats,
as §4

Data set [4] deals with aggressiveness subsequent to extended isolation in mice. As to the kind of experiment: Anti-aggressive: aggressiveness subsequent to extended isolation, mice. Particulars: Mus musculus, oral, read-out: Oral AD50, isolated mice. The protocol: c. aggressiveness subsequent to extended isolation, in mice,
as §4

Data set [5] deals with carrage enin-induced edema in rats. The data set is described as follows: Anti-inflammatory: carrageenin-induced edema in rats. Particulars: oral route. On the procedure: The technique used was that of the carrage enin-induced edema in rats (oral route). The dosage which inhibits this edema by a factor of 50% was evaluated by interpolation.
A general note: Carrageenan injected into the paw causes an acute inflammation.

Data set [6] concerns bronchospasm induced by histamine injection in guinea-pigs. The data set is described as follows: Anti-histaminic: bronchospasm induced by histamine injection in guinea-pigs. To be noted: Cavia porcellus, oral, read-out: oral AD50, anti-histaminic activity. The protocol: This activity was determined according to the technique of the bronchospasm induced by histamine injection in guinea-pigs.

Data set [7] concerns cough induced by electric stimulation of the laryngeal nerve in cats. As to the kind of experiment: Anti-tussive: cough induced by electric stimulation of the laryngeal nerve. The source says:
6. Anti-tussive activity against cough induced by electric stimulation of the laryngeal nerve in cats.

The next data set relates to rats. As to the kind of experiment: Acute toxicity in rats. To be noted: single administration.
From the text: as §1, §2

Another data set relates to mice. As to the kind of experiment: Acute toxicity in mice. To be noted: single administration.
From the text: as §1, §2

[8] abbreviates: po, read-out: LD50, oral route, mice.
Setting [9] is: sc, read-out: LD50, s.c. route, mice.

In general, LD50 refers to the dose at which mortality reaches 50%. For the compound `Cc1cccc(N2CCN(CCN3CCn4c3nc3c4c(=O)n(C)c(=O)n3C)CC2)c1` [Compound 1], the LD50 in the data set “Acute toxicity in rats” is over 100 mg/kg; in “Acute toxicity in mice” (setting [8]) it was over 300 mg/kg; in “Acute toxicity in mice” (setting [9]), over 300 mg/kg.

Turning to `Cc1ccc(N2CCN(CCN3CCn4c3nc3c4c(=O)n(C)c(=O)n3C)CC2)cc1C` [Compound 2], the LD50 in the data set “Acute toxicity in rats” is over 100 mg/kg; in the data set “Acute toxicity in mice” (setting [8]), over 300 mg/kg; in the data set “Acute toxicity in mice” (setting [9]), over 300 mg/kg.

`COc1cccc(N2CCN(CCN3CCn4c3nc3c4c(=O)n(C)c(=O)n3C)CC2)c1` [Compound 3]: the ED50 is 30 mg/kg in [1], 100 mg/kg in data set [2], 180 mg/kg in [3] and 25 mg/kg in [4]. Besides, the LD50 in “Acute toxicity in rats” was over 100 mg/kg; in the data set “Acute toxicity in mice” (setting [8]), over 300 mg/kg; in “Acute toxicity in mice” (setting [9]), over 300 mg/kg.

In the case of `COc1ccc(N2CCN(CCN3CCn4c3nc3c4c(=O)n(C)c(=O)n3C)CC2)cc1` [Compound 4], the LD50 is over 100 mg/kg in the data set “Acute toxicity in rats”, over 300 mg/kg in the data set “Acute toxicity in mice” (setting [8]) and over 300 mg/kg in “Acute toxicity in mice” (setting [9]).

With `Cn1c(=O)c2c(nc3n2CCN3CCN2CCN(c3cccc(C(F)(F)F)c3)CC2)n(C)c1=O` [Compound 5], the LD50 is over 100 mg/kg in the data set “Acute toxicity in rats”, over 300 mg/kg in the data set “Acute toxicity in mice” (setting [8]) and over 300 mg/kg in “Acute toxicity in mice” (setting [9]).

Consider `Cn1c(=O)c2c(nc3n2CCN3CCN2CCN(c3cccc(F)c3)CC2)n(C)c1=O` [Compound 6], for which the LD50 in the data set “Acute toxicity in rats” was over 100 mg/kg; in “Acute toxicity in mice” (setting [8]), over 300 mg/kg; in “Acute toxicity in mice” (setting [9]), over 300 mg/kg.

`Cn1c(=O)c2c(nc3n2CCN3CCN2CCN(c3ccc(F)cc3)CC2)n(C)c1=O` [Compound 7]: the 50% lethal dose (LD50) is over 100 mg/kg in “Acute toxicity in rats”, over 300 mg/kg in the data set “Acute toxicity in mice” (setting [8]) and over 300 mg/kg in the data set “Acute toxicity in mice” (setting [9]).

On to `Cn1c(=O)c2c(nc3n2CCN3CCN2CCN(c3cccc(Br)c3)CC2)n(C)c1=O` [Compound 8], for which the LD50 in the data set “Acute toxicity in rats” was over 100 mg/kg; in “Acute toxicity in mice” (setting [8]) it was over 300 mg/kg; in the data set “Acute toxicity in mice” (setting [9]), over 300 mg/kg.

Consider `Cn1c(=O)c2c(nc3n2CCN3CCN2CCN(c3cccc(I)c3)CC2)n(C)c1=O` [Compound 9], for which the LD50 is over 100 mg/kg in “Acute toxicity in rats”, over 300 mg/kg in “Acute toxicity in mice” (setting [8]) and over 300 mg/kg in “Acute toxicity in mice” (setting [9]).

Consider `Cn1c(=O)c2c(nc3n2CCN3CCN2CCN(c3ccccc3Cl)CC2)n(C)c1=O` [Compound 10], for which the LD50 in the data set “Acute toxicity in rats” was over 100 mg/kg; in the data set “Acute toxicity in mice” (setting [8]), over 300 mg/kg; in “Acute toxicity in mice” (setting [9]), over 300 mg/kg.

Consider `Cn1c(=O)c2c(nc3n2CCN3CCN2CCN(c3ccc(Cl)cc3)CC2)n(C)c1=O` [Compound 12], for which, in [5], the “anti-inflammatory activity (in words)” value is listed as “the more active, the activities being substantially equivalent to those of phenyl butazone”. For the same compound, the figures for the 50% lethal dose (LD50) in the data set “Acute toxicity in rats”, in “Acute toxicity in mice” (setting [8]) and in the data set “Acute toxicity in mice” (setting [9]) were over 100 mg/kg, 120 mg/kg and over 300 mg/kg, respectively. The ED50 in data set [6] was 1.5 mg/kg. Moreover, the “anti-tussive activity (in words)” value in data set [7] is “most active compound investigated”.

As to `Cn1c(=O)c2c(nc3n2CCN3CCN2CCN(c3cccc(Cl)c3Cl)CC2)n(C)c1=O` [Compound 13], the results for the LD50 in “Acute toxicity in rats”, in the data set “Acute toxicity in mice” (setting [8]) and in the data set “Acute toxicity in mice” (setting [9]) were over 100 mg/kg, over 300 mg/kg and over 300 mg/kg, respectively.

In the case of `Cn1c(=O)c2c(nc3n2CCN3CCN2CCN(c3ccc(Cl)c(Cl)c3)CC2)n(C)c1=O` [Compound 14], the figures for the LD50 in “Acute toxicity in rats”, in the data set “Acute toxicity in mice” (setting [8]) and in the data set “Acute toxicity in mice” (setting [9]) were over 100 mg/kg, over 300 mg/kg and over 300 mg/kg, respectively.

Take `Cn1c(=O)c2c(nc3n2CCN3CCN2CCN(c3cc(Cl)cc(Cl)c3)CC2)n(C)c1=O` [Compound 15]: the LD50 is over 100 mg/kg in “Acute toxicity in rats”, over 300 mg/kg in “Acute toxicity in mice” (setting [8]) and over 300 mg/kg in “Acute toxicity in mice” (setting [9]).

For the compound `CC(CN1CCn2c1nc1c2c(=O)n(C)c(=O)n1C)N1CCN(c2cccc(Cl)c2)CC1` (centres unmarked) [Compound 16], the results for the LD50 in “Acute toxicity in rats”, in the data set “Acute toxicity in mice” (setting [8]) and in “Acute toxicity in mice” (setting [9]) were over 100 mg/kg, over 300 mg/kg and over 300 mg/kg, respectively.

Turning to `Cn1c(=O)c2c(nc3n2CCN3CCCN2CCN(c3cccc(Cl)c3)CC2)n(C)c1=O` [Compound 17], the values for the LD50 in the data set “Acute toxicity in rats”, in “Acute toxicity in mice” (setting [8]) and in the data set “Acute toxicity in mice” (setting [9]) were over 100 mg/kg, over 300 mg/kg and over 300 mg/kg, respectively.

For the compound `CC(CN1CCCn2c1nc1c2c(=O)n(C)c(=O)n1C)N1CCN(c2cccc(Cl)c2)CC1` (centres unmarked) [Compound 19], the figures for the LD50 in the data set “Acute toxicity in rats”, in the data set “Acute toxicity in mice” (setting [8]) and in “Acute toxicity in mice” (setting [9]) were over 100 mg/kg, over 300 mg/kg and over 300 mg/kg, respectively.

In the case of `Cn1c(=O)c2c(nc3n2CCCN3CCCN2CCN(c3cccc(Cl)c3)CC2)n(C)c1=O` [Compound 20], the “anti-inflammatory activity (in words)” value in data set [5] is listed as “the more active, the activities being substantially equivalent to those of phenyl butazone”. The LD50 in the data set “Acute toxicity in rats” is over 100 mg/kg; in “Acute toxicity in mice” (setting [8]), over 300 mg/kg; in the data set “Acute toxicity in mice” (setting [9]) it was over 300 mg/kg.

`CC1CN(CCN2CCn3c2nc2c3c(=O)n(C)c(=O)n2C)CCN1c1cccc(Cl)c1` (centres unmarked) [Compound 21]: the values for the LD50 in the data set “Acute toxicity in rats”, in “Acute toxicity in mice” (setting [8]) and in the data set “Acute toxicity in mice” (setting [9]) were over 100 mg/kg, over 300 mg/kg and over 300 mg/kg, respectively.

As for `CC1CN(CCN2CCn3c2nc2c3c(=O)n(C)c(=O)n2C)CCN1c1ccc(Cl)cc1` (centres unmarked) [Compound 22], the results for the LD50 in the data set “Acute toxicity in rats”, in “Acute toxicity in mice” (setting [8]) and in the data set “Acute toxicity in mice” (setting [9]) were over 100 mg/kg, over 300 mg/kg and over 300 mg/kg, respectively.

Take `CCC1CN(CCN2CCn3c2nc2c3c(=O)n(C)c(=O)n2C)CCN1c1cccc(Cl)c1` (centres unmarked) [Compound 24]: the LD50 was over 100 mg/kg in the data set “Acute toxicity in rats”, 300 mg/kg in “Acute toxicity in mice” (setting [8]) and over 300 mg/kg in the data set “Acute toxicity in mice” (setting [9]).

As to `Cn1c(=O)c2c(nc3n2CCN3CCN2CCN(c3cccc(Cl)c3)C(COc3ccccc3)C2)n(C)c1=O` (centres unmarked) [Compound 25], the figures for the LD50 in “Acute toxicity in rats”, in the data set “Acute toxicity in mice” (setting [8]) and in the data set “Acute toxicity in mice” (setting [9]) were over 100 mg/kg, over 300 mg/kg and over 300 mg/kg, respectively.

`Cn1c(=O)c2c(nc3n2CCCCN3CCN2CCN(c3cccc(Cl)c3)CC2)n(C)c1=O` [Compound 26]: the median lethal dose (LD50) in the data set “Acute toxicity in rats” is over 100 mg/kg; in “Acute toxicity in mice” (setting [8]), over 300 mg/kg; in the data set “Acute toxicity in mice” (setting [9]), over 300 mg/kg.

Take `Cn1c(=O)c2c(nc3n2CCCCN3CCCN2CCN(c3cccc(Cl)c3)CC2)n(C)c1=O` [Compound 27]: the LD50 was over 100 mg/kg in “Acute toxicity in rats”, over 300 mg/kg in the data set “Acute toxicity in mice” (setting [8]) and over 300 mg/kg in the data set “Acute toxicity in mice” (setting [9]).

In the case of `Cn1c(=O)c2c(nc3n2CCCN3CCCN2CCN(c3ccc(Cl)cc3)CC2)n(C)c1=O` [Compound 28], the LD50 is over 100 mg/kg in the data set “Acute toxicity in rats”, over 300 mg/kg in “Acute toxicity in mice” (setting [8]) and over 300 mg/kg in the data set “Acute toxicity in mice” (setting [9]).

As for `Cn1c(=O)c2c(nc3n2CCN3CCCCCCN2CCN(c3cccc(Cl)c3)CC2)n(C)c1=O` [Compound 29], the values for the LD50 in “Acute toxicity in rats”, in the data set “Acute toxicity in mice” (setting [8]) and in the data set “Acute toxicity in mice” (setting [9]) were over 100 mg/kg, over 300 mg/kg and over 300 mg/kg, respectively.

`Cn1c(=O)c2c(nc3n2CCCN3CCCCCCN2CCN(c3cccc(Cl)c3)CC2)n(C)c1=O` [Compound 30]: the values for the 50% lethal dose (LD50) in “Acute toxicity in rats”, in the data set “Acute toxicity in mice” (setting [8]) and in “Acute toxicity in mice” (setting [9]) were over 100 mg/kg, over 300 mg/kg and over 300 mg/kg, respectively.

On to `Cn1c(=O)c2c(nc3n2CCN3CCN2CCN(c3cccc(Cl)c3)CC2)n(C)c1=O` [Compound 31], for which, in the data set on rats, the “LD50, oral route, rats” value was over 100 mg/kg. For the same compound, the “LD50, oral route, mice” value in the data set with mice (oral route) is 150 mg/kg. Moreover, the “LD50, s.c. route, mice” value with mice (s.c. route) was over 300 mg/kg.
